Data from patent US12697322B2, “Methods of treating cancer using androgen receptor antagonists” (Garvan Institute of Medical Research, priority 2019, dated 2026).
“Also recorded” adds a separate entry of the source.

Columns and labels:
[1] = system: HMLER-CD44Hi and HCC38 CD44Hi cells; experiment: Tumoursphere formation assay; format: cell-based, human; conditions: CD44^Hi cells, counted at Day 14
Method: Single cell suspensions were plated in ultra-low attachment 96-well plates (Corning #CLS3474, New York, USA). HMLE-CD44^Hi cells were plated at a density of 50 cells/well in 100 μl of BPA-free MEGM media (Lonza # CC-3150, Basal, Switzerland). HCC38-CD44^Hi cells were plated at a density of 100 cells/well in serum-free RPMI with 1% penicillin/streptomycin, 20 ng/ml EGF, 20 ng/ml FGFb, 4 μg/mL heparin, 1×B27 and 1% methyl cellulose (Sigma). Media was replenished every five days by adding 50 μL of the appropriate tumoursphere media to each well. Tumourspheres were counted at Day 14. Results are presented as tumoursphere formation efficiency (number of spheres per well divided by the number of cells seeded per well). At Day 14, mammospheres were collected using a 40 μm cell strainer, washed with PBS and dissociated using trypsin-EDTA solution, and stained with anti-CD44PECy7 and anti-CD104PE as per standard FACS staining protocol.

[2] = system: CD44^Hi cells isolated from HMLER and HCC38 cell lines; experiment: Cell proliferation assay (CyQuant); format: cell-based, human; conditions: for CD44^Hi proliferation: CD44^Hi cells from HMLER and HCC38
Method: HMLER, HCC38 and MDA-MB-231 cells were plated in triplicate in 96-well plates at the densities outlined in Table 3. After 24 hours, cells were treated with various chemotherapeutic agents at the following doses: Doxorubicin (0 nM, 25 nM, 50 nM, 75 nM, 100 nM, 200 nM), Cisplatin (0 μg/ml, 0.1 μg/ml, 0.5 μg/ml, 1 μg/ml, 2 μg/ml, 5 μg/ml) or Docetaxel (0 nM, 1 nM, 5 nM, 10 nM, 25 nM, 50 nM); Androgen receptor agonists: Enobosarm (0 nM, 25 nM, 50 nM, 100 nM, 200 nM, 400 nM) or DHT (0 nM, 1 nM, 5 nM, 10 nM, 20 nM, 40 nM); or AR antagonist: Seviteronel (0 nM, 0.5 nM, 2 nM, 10 nM, 20 nM, 50 nM). Assays were harvested daily for five days by removing culture media and storing at −80′C. Cell proliferation was determined using CyQuant Cell Proliferation assay kit according to manufacturer's protocol (ThermoFisher Scientific) and fluorescence was measured at ~480 nm excitation and ~520 nm emission using a microplate reader.

[3] = system: MDA_MB-231-EGFP-Luc cells; experiment: MDA-MB-231-EGFP-Luc orthotopic xenograft, Docetaxel and Seviteronel (Example 12, FIG. 12); format: in vivo, NSG female mice
Method: 1×10^6 MDA_MB-231-EGFP-Luc cells were injected orthotopically into the mammary fat pad of NSG female mice. 14 animals were enrolled per treatment arm to reach 80% statistical power. Tumour size was monitored by caliper measurement twice per week. At the time tumour size reached 50-150 mm^3 animals were randomized into treatment arms: Vehicle (Veh), Seviteronel (Sev), Docetaxel, Docetaxel+Seviteronel. Seviteronel (100 mg/kg) was administrated via oral gavage daily (6 days on+1 day off) for cycles of 4. Seviteronel was resuspended into a 5% DMSO, 0.1% Tween 80, Hydro-methylcellulose solution at a 5 mg/ml concentration. […] Growth kinetics were monitored through the course of treatment and plotted using graph-pad prism (V9). […] At treatment endpoint, animals were injected with luciferin (10 μl/gr of 15 mg/ml stock) and metastatic burden analyzed using an IVIS spectrum imager 10 min post injection. […]
1×10^6 MDA_MB-231-EGFP-Luc cells were injected orthotopically into the mammary fat pad of NSG female mice. […] Tumour size was monitored by caliper measurement twice per week. […] Growth kinetics were monitored through the course of treatment by caliper measurement. […] Metastasis development was monitored until animals reached ethical end-point by weekly IVIS imaging. […]

[4] = system: HMLER and HCC38 CD44^Lo cells; experiment: Flow cytometry of chemotherapy-induced CD44^Lo to CD44^Hi plasticity; format: cell-based, human; conditions: for induction of CD44^Lo-to-CD44^Hi transition by chemotherapy: one dose of chemotherapy for 72 hours; for blocking of chemotherapy-induced CD44^Lo-to-CD44^Hi transitions: with chemotherapy simultaneously for 72 hours, Seviteronel 10 μM
Source text: Cells were stained and fixed as with DHT treatment.
Using purified populations of CD44^Lo cells (with no CD44^Hi fraction) the effects of chemotherapy on cellular plasticity was investigated using flow cytometry.

[5] = system: MDA-MB-231 EGFP-Luciferase cells; experiment: MDA-MB-231 xenograft, Seviteronel and Docetaxel (Example 5, FIG. 11); format: in vivo, mice; conditions: Seviteronel 100 mg/kg daily oral gavage, DTX 40 mg/kg i.p., 3 doses
Method: Forty-eight mice were enrolled in the experiment and randomized into 4 treatment arms: Vehicle (Veh), Seviteronel (Sev), Docetaxel (DTX) or combination therapy (Sev+Dtx). Animals were 6-8 weeks of age at the time of injection. MDA-MB-231 EGFP-Luciferase cells were cultured in DMEM 10% FBS 1% P/S. On the surgery date, 1×10^6 cells resuspended in 20% Matrigel/DMEM were injected unilaterally into the mammary fat pad. Tumour growth was monitored twice per week to establish growth kinetics. Five weeks post-injection, when tumour size ranged between 50-100 mm^3, animals were randomized to receive daily oral gavage with either vehicle (1% Carboxymethylcellulose, 0.1% Tween-80 and 5% DMSO) or Seviteronel (100 mg/kg). Animals were dosed from Monday to Saturday, leaving 1 day recovery per week. After one week, animals were again randomized within the Vehicle or Seviteronel groups to Control or Chemotherapy (DTX). […] Metastatic burden and tumour size was determined using the IVIS-spectrum imaging system. […] The presence of metastatic cells in each organ was additionally determined by FACS analysis (fluorescence activate cell sorting) using a panel of antibodies previously established in the lab (CD298-PE, CD44-PEcy7 and CD104EF660). Results were analyzed and graphed using Flowjo3 and prism 8. […] Metastatic incidence was analyzed applying two-way ANOVA uncorrected Fisher's LSD test.

[6] = system: HMLER-CD44Hi and HCC38 CD44Hi cells; experiment: Tumoursphere formation assay; format: cell-based, human
[7] = system: AR full length (100 kDa); experiment: AR siRNA knockdown, western blot; format: cell-based, human; conditions: HCC38 CD44^Hi cells, 20 nM siRNA, 72 h post transfection
Method: Protein was extracted from cell lysates using RIPA lysis buffer (sc-24948) or specific lysis buffer for phospho-proteins detection (20 mM Tris-HC1 pH 7.6, 137 mM NaCl, 1% NP40, 0.5% Na-deoxycholate, 10 mM NaF, 20 mM β-glycerophosphate, 1 mM Na-orthovanadate and 1:200 complete protease inhibitors). 25-30 μg of proteins were run in a 4-12% Bis-tris gel (Invitrogen). Proteins were transferred to a PVDF membrane (BioRad). After blocking with 5% BSA (w/v) and 0.05% (v/v) Tween-20 in PBS, the membranes were incubated overnight with the indicated antibodies, washed with PBS 0.05% (v/v) Tween-20 and incubated with the corresponding horseradish peroxidase-conjugated secondary antibodies (Cell Signaling; Dil 1/5000, Table 3) for 30 min. Blots were developed using Western Lightning Plus ECL (PerkinElmer) and FusionFx7 Digital Imager, Band intensities were quantified using Fiji (Schindelin et al., 2012) and results were represented relative to controls.
siRNAs targeting exon 1 and 7 of AR full length were designed in-house (SEQ ID NOs: 6 and 7). HCC38 CD44^Hi cells (10^5/well) were seeded in M6 plate wells 24 hours prior to siRNA transfection. 20 nM of siRNA CT, siRNA AR Ex1 or AR Ex7 were delivered using lipofectamine 3000 (Thermofisher) as per manufacturer instructions.

Molecule: C[C@]12CC[C@H](O)CC1=CC[C@@H]1[C@@H]2CC[C@]2(C)C(c3cccnc3)=CC[C@@H]12 [Abiraterone, (3p)-17-(pyridin-3-yl) androsta-5, 16-dien-3-ol]
- tumoursphere formation (tumoursphere-forming efficiency) [1]: decrease
- CD44^Hi proliferation [2]: decreased CD44Hi proliferation; also recorded: decrease CD44^Hi proliferation

Molecule: CC(=O)O[C@@]12CO[C@@H]1C[C@H](O)[C@@]1(C)C(=O)[C@H](O)C3=C(C)[C@@H](OC(=O)[C@H](O)[C@@H](NC(=O)OC(C)(C)C)c4ccccc4)C[C@@](O)([C@@H](OC(=O)c4ccccc4)[C@H]21)C3(C)C [Docetaxel]
- animals clear of metastasis (metastasis free survival) ([3]; 10 weeks following commencement of second round of treatment (Day 77), IVIS): 0%
- induction of CD44^Lo-to-CD44^Hi transition by chemotherapy [4]: induce CD44^Lo cells to transition to the CD44^Hi state
- tumour growth [5]: significantly reduces tumour growth compared to Seviteronel alone

Molecule: COc1cccc2c1C(=O)c1c(O)c3c(c(O)c1C2=O)C[C@@](O)(C(=O)CO)C[C@@H]3O[C@H]1C[C@H](N)[C@H](O)[C@H](C)O1 [Doxorubicin]
- induction of CD44^Lo-to-CD44^Hi transition by chemotherapy [4]: induce CD44^Lo cells to transition to the CD44^Hi state

Molecule: CNC(=O)c1ccc(N2C(=S)N(c3ccc(C#N)c(C(F)(F)F)c3)C(=O)C2(C)C)cc1F [Enzalutamide, 4-{3-[4-cyano-3-(trifluoromethyl)phenyl]-5,5-dimethyl-4-oxo-2-sulfanylideneimidazolidin-1-yl}-2-fluoro-iV-methylbenzamide]
- blocking of chemotherapy-induced CD44^Lo-to-CD44^Hi transitions [4]: not as effective as Seviteronel
- CD44^Hi proliferation [2]: decreased CD44Hi proliferation; also recorded: decrease CD44^Hi proliferation
- treatment required to equal the effect of Seviteronel ([2]; CD44^Hi proliferation and tumoursphere formation): daily treatment of Enzalutamide was required to equal one dose of Seviteronel

Molecule: CC(C)[C@](O)(c1ccc2cc(OC(F)F)c(OC(F)F)cc2c1)c1c[nH]nn1 [Seviteronel, (1S)-1-[6,7-bis(difluoromethoxy)naphthalen-2-yl]-2-methyl-1-(2H-triazol-4-yl)propan-1-ol]
- tumoursphere formation (tumoursphere-forming efficiency) [1]: decrease; also recorded: dose-dependently inhibits tumoursphere-forming ability
- tumour growth compared with Veh (FIG. 12B) ([3]; Seviteronel 150 mg/kg/day 1st week then 100 mg/kg/day for 3 weeks, Dtx 20 mg/kg i.p. x3): significantly reduces tumour growth compared with Veh treatmet arm
- size of tumorspheres [6]: reduces the size of tumorspheres
- blocking of chemotherapy-induced CD44^Lo-to-CD44^Hi transitions [4]: blocks chemotherapy-induced CD44^Lo-to-CD44^Hi transitions; also recorded: inhibits chemotherapy-induced CD44Lo-to-CD44-Hi plasticity; also recorded: can be blocked
- CD44^Hi proliferation [2]: decreased CD44Hi proliferation; also recorded: decrease CD44^Hi proliferation; also recorded: inhibits the growth of CD44^Hi cells
- tumour growth [5]: significantly reduces tumour growth kinetics compared to control

Molecule: AR Ex7: in-house siRNA targeting AR exon 7, SEQ ID NO: 7 (GGAACUCGAUCGUAUCAUUUU; listed as RNA, chemistry not given here)
- expression of AR full length [7]: strong reduction

Molecule: siRNA AR Ex1: in-house siRNA against AR full length, SEQ ID NO: 6 (GCUUCUGGGUGUCACUAUGUU; listed as RNA, chemistry not given here)
- expression of AR full length [7]: strong reduction
